Key:
[1] = tested on: LKB1/AMPK and AKT signaling pathways in human hepatoma HepG2 cells; experiment: Zinc activation of LKB1/AMPK and AKT signaling in HepG2 cells (immunoblot); type: cell-based; details: acute, FIG. 12A
Description: (§1) FIGS. 12A-12B. […] 1° Hu Hepatocytes* (5-donor pool): HM CPP5, Thermofisher.
(§2) Liver protein was extracted using RIPA buffer (Cell signaling technology, Cat #9806) with Halt Protease & Phosphatase Inhibitor Cocktail (ThermoFisher Scientific, Cat #78440). Five microgram protein of each sample were separated in NuPAGE 4-12% Bis-Tris protein gel (Invitrogen, Cat # WG1403BOX), and transferred to nitrocellulose membrane using Trans-Blot® Turbo™ Transfer System (BioRad). Blotting was performed using the following Cell Signaling Technology antibodies: Phospho-AMPKa (Thr172) (Cell signaling technology, Cat #2535), AMPKa (Cell signaling technology, Cat #5831), 13-Actin (Sigma, Cat #5441), Phospho-AKT (Ser473) (Cell signaling technology, Cat #4060), AKT (Cell signaling technology, Cat #9272), Phospho-LKB1 (Ser428) (Cell signaling technology, Cat #3482), LKB1 (Cell signaling technology, Cat #3050), rabbit IgG conjugated to horseradish peroxidase (HRP) (Cell signaling technology, Cat #7074) and mouse IgG conjugated to HRP (Cell signaling technology, Cat #7076). Blots were developed using SuperSignal West Femto Substrate (ThermoFisher Scientific, Cat #34095). Signals were captured using ImageQuant LAS4000 (GE Healthcare).

[2] = tested on: LKB1/AMPK and AKT signaling pathways in human primary hepatocytes; experiment: Zinc activation of LKB1/AMPK and AKT signaling in human primary hepatocytes (immunoblot); type: cell-based; details: human primary hepatocytes (5-donor pool, HM CPP5, Thermofisher); acute; FIG. 12B
Description: as §1, §2

**Q.** Which “activation of LKB1/AMPK and AKT signaling pathways” value [1] does the source give for `[Zn]` [Zinc] here?
**A.** activates LKB1/AMPK and AKT signaling pathways in dose dependent manner

**Q.** What about the “activation of LKB1/AMPK and AKT signaling pathways” value [2] of the same compound?
**A.** activates LKB1/AMPK and AKT signaling pathways in dose dependent manner
